Test results taken from patent US20090143426A1, “Synthesis of 1,3,6-trisubstituted-2-carboxyquinol-4-ones as selective ET A antagonists and their use as medicaments” (priority 2007, published 2009).
Positions of bridges follow the written chain, without caps; N, C: chain ends. Non-standard residues stand in square brackets, D forms with d. Residues, ends and D or L forms follow the SMILES beside them. No end group written: not given here.

Key:
[1] = tested on: BALF neutrophils in female Syrian hamsters; test: Animal model of smoking related acute lung injury (ET-1 plus cigarette smoke, BALF neutrophils); format: in vivo, hamster
Description: Animal models of smoking related acute lung injury. The Animal Care and Utilization Committee of the College of Pharmacy and Allied Health Professions, St. John's University approved all experimental protocols, and the research was conducted according to the requirements of NIH Guide for the Care and Use of Laboratory Animals (revised 1996).
Female Syrian hamsters, weighing approximately 100 g each, were divided into two groups as follows: Group 1 was treated IP with: 1) 500 μg of HJP272 in 0.5 mL Na2CO3 and 2) 5 μg ET-1 in 0.25 mL PBS 60 minutes later, followed immediately by exposure to cigarette smoke for two hours. This regimen was continued for three days.
Group 2 was treated IP with: 1) 0.5 mL Na2CO3 and 2) […] ET-1 in 0.25 mL PBS 60 minutes later, followed immediately by exposure to cigarette smoke for three consecutive days as per Group 1. The animals were placed in a 70×48×38 cm chamber and passively exposed to cigarette smoke produced by a TE-10 smoking machine (Teague Enterprises, Davis, Calif.) that simultaneously burned two filtered research-grade cigarettes (type 2R4F, University of Kentucky). Smoke from both the filtered and burning ends of the cigarette was collected, and then mixed together with air in a separate chamber, thus simulating second-hand smoke exposure. Each cigarette was puffed once per minute for two seconds at a flow rate of 1.05 LPM, yielding 35 mL of smoke. This cycle was repeated nine times before ejecting the cigarette and loading a new one. Proper flow rate was maintained by a vacuum pump that established negative pressure at the exhaust port. Total smoke particulates averaged 87 mg per cubic meter.
All animals were sacrificed 24 hours after completing the smoke exposure regimen to maximize the neutrophil population in the lung, and the percentage of BALF neutrophils was measured (van der Vaart et al. 2004)

[2] = tested on: LPS-induced influx of neutrophils into the lung; settings: Bhavsar et al. 2008a, 2008b; cited from earlier work
[3] = tested on: LPS-stimulated pregnant mice; settings: Koscica et al. 2004, Wang et al. 2008; cited from earlier work

| Compound | melting point [°C] | also measured |
| --- | --- | --- |
| CCc1cc2c(cc1Cn1c(C(=O)O)c(Cc3cccc(C(=O)O)c3)c(=O)c3cc(OC(C)C)ccc31)OCO2 [Product 1q, 3-(3-carboxybenzyl)-1-((6-ethylbenzo[d][1,3]dioxol-5-yl)methyl)-6-isopropoxy-4-oxo-1,4-dihydroquinoline-2-carboxylic acid] | 199 to 200 |  |
| CCOC(=O)c1cccc(Cc2c(C(=O)OCC)n(Cc3cc4c(cc3CC)OCO4)c3ccc(OCC)cc3c2=O)c1 [Product 1b, Ethyl 6-ethoxy-3-(3-(ethoxycarbonyl)benzyl)-1-((6-ethylbenzo[d][1,3]dioxol-5-yl)methyl)-4-oxo-1,4-dihydroquinoline-2-carboxylate] | 124 to 126 |  |
| CCOC(=O)c1cccc(Cc2c(C(=O)OCC)n(Cc3cc4c(cc3CC)OCO4)c3ccc(OCC(C)C)cc3c2=O)c1 [Product 1h, Ethyl 3-(3-(ethoxycarbonyl)benzyl)-1-((6-ethylbenzo[d][1,3]dioxol-5-yl)methyl)-6-isobutoxy-4-oxo-1,4-dihydroquinoline-2-carboxylate] | 129 to 132 |  |
| CCCCCOc1ccc2c(c1)c(=O)c(Cc1cccc(C(=O)OCC)c1)c(C(=O)OCC)n2Cc1cc2c(cc1CC)OCO2 [Product 1k, Ethyl 3-(3-(ethoxycarbonyl)benzyl)-1-((6-ethylbenzo[d][1,3]dioxol-5-yl)methyl)-4-oxo-6-(pentyloxy)-1,4-dihydroquinoline-2-carboxylate] | 98 to 99 |  |
| CCc1cc2c(cc1Cn1c(C(=O)O)c(Cc3cccc(C(=O)O)c3)c(=O)c3cc(OCCCO)ccc31)OCO2 [Product 1y, 3-(3-carboxybenzyl)-1-((6-ethylbenzo[d][1,3]dioxol-5-yl)methyl)-6-(3-hydroxypropoxy)-4-oxo-1,4-dihydroquinoline-2-carboxylic acid] | 192 to 194 |  |
| CCCCOc1ccc2c(c1)c(=O)c(Cc1cccc(C(=O)OCC)c1)c(C(=O)OCC)n2Cc1cc2c(cc1CC)OCO2 [Product 1g, Ethyl 6-butoxy-3-(3-(ethoxycarbonyl)benzyl)-1-((6-ethylbenzo[d][1,3]dioxol-5-yl)methyl)-4-oxo-1,4-dihydroquinoline-2-carboxylate] | 147 to 150 |  |
| CCOc1ccc2c(c1)c(=O)c(Cc1cccc(C(=O)O)c1)c(C(=O)O)n2Cc1cc2c(cc1CC)OCO2 [Product 1o, 3-(3-carboxybenzyl)-6-ethoxy-1-((6-ethylbenzo[d][1,3]dioxol-5-yl)methyl)-4-oxo-1,4-dihydroquinoline-2-carboxylic acid] | 213 to 215 |  |
| CCOC(=O)c1cccc(Cc2c(C(=O)OCC)n(Cc3cc4c(cc3CC)OCO4)c3ccc(OCCCO)cc3c2=O)c1 [Product 1l, Ethyl 3-(3-(ethoxycarbonyl)benzyl)-1-((6-ethylbenzo[d][1,3]dioxol-5-yl)methyl)-6-(3-hydroxypropoxy)-4-oxo-1,4-dihydroquinoline-2-carboxylate] | 129 to 132 |  |
| CCOC(=O)c1cccc(Cc2c(C(=O)OCC)n(Cc3cc4c(cc3CC)OCO4)c3ccc(O)cc3c2=O)c1 [Product 1a, Ethyl 3-(3-(ethoxycarbonyl)benzyl)-1-((6-ethylbenzo[d][1,3]dioxol-5-yl)methyl)-6-hydroxy-4-oxo-1,4-dihydroquinoline-2-carboxylate] | 232 to 234 |  |
| C=CCOc1ccc2c(c1)c(=O)c(Cc1cccc(C(=O)O)c1)c(C(=O)O)n2Cc1cc2c(cc1CC)OCO2 [Product 1r, 6-(allyloxy)-3-(3-carboxybenzyl)-1-((6-ethylbenzo[d][1,3]dioxol-5-yl)methyl)-4-oxo-1,4-dihydroquinoline-2-carboxylic acid] | 165 to 166 |  |
| CCOC(=O)c1cccc(Cc2c(C(=O)OCC)n(Cc3cc4c(cc3CC)OCO4)c3ccc(OC(C)CC)cc3c2=O)c1 (stereo not drawn) [Product 1i, Ethyl 6-sec-butoxy-3-(3-(ethoxycarbonyl)benzyl)-1-((6-ethylbenzo[d][1,3]dioxol-5-yl)methyl)-4-oxo-1,4-dihydroquinoline-2-carboxylate] | 129 to 132 |  |
| CCCOc1ccc2c(c1)c(=O)c(Cc1cccc(C(=O)O)c1)c(C(=O)O)n2Cc1cc2c(cc1CC)OCO2 [Product 1p, 3-(3-carboxybenzyl)-1-((6-ethylbenzo[d][1,3]dioxol-5-yl)methyl)-4-oxo-6-propoxy-1,4-dihydroquinoline-2-carboxylic acid] | 162 to 163 |  |
| Endothelin-1 (CSCSSLMDKECVYFCHLDIIW; disulfide 1-15, 3-11; ends not checked; UniProt P05305 53-73, looked up) [ET-1, reference compound] |  | percentage of BALF neutrophils ([1]; ET-1 and room air): 1%; percentage of BALF neutrophils ([1]; ET-1 prior to cigarette smoke, smoke-only control 18%): 46% |
| CCCOc1ccc2c(c1)c(=O)c(Cc1cccc(C(=O)OCC)c1)c(C(=O)OCC)n2Cc1cc2c(cc1CC)OCO2 [Product 1c, Ethyl 3-(3-(ethoxycarbonyl)benzyl)-1-((6-ethylbenzo[d][1,3]dioxol-5-yl)methyl)-4-oxo-6-propoxy-1,4-dihydroquinoline-2-carboxylate] | 134 to 135 |  |
| CCCCOc1ccc2c(c1)c(=O)c(Cc1cccc(C(=O)O)c1)c(C(=O)O)n2Cc1cc2c(cc1CC)OCO2 [Product 1t, 6-butoxy-3-(3-carboxybenzyl)-1-((6-ethylbenzo[d][1,3]dioxol-5-yl)methyl)-4-oxo-1,4-dihydroquinoline-2-carboxylic acid] | 161 to 162 |  |
| CC(C)C[C@H](NP(=O)(O)O[C@@H]1O[C@@H](C)[C@H](O)[C@@H](O)[C@H]1O)C(=O)N[C@@H](Cc1c[nH]c2ccccc12)C(=O)O [phosphoramidon] |  | LPS-induced influx of neutrophils into the lung [2]: markedly reduces; incidence of premature delivery [3]: decreases the incidence of premature delivery |
| CCc1cc2c(cc1Cn1c(C(=O)O)c(Cc3cccc(C(=O)O)c3)c(=O)c3cc(OCC4CC4)ccc31)OCO2 [Product 1w, 3-(3-carboxybenzyl)-6-(cyclopropylmethoxy)-1-((6-ethylbenzo[d][1,3]dioxol-5-yl)methyl)-4-oxo-1,4-dihydroquinoline-2-carboxylic acid] | 229 to 231 |  |
| CCc1cc2c(cc1Cn1c(C(=O)O)c(Cc3cccc(C(=O)O)c3)c(=O)c3cc(OCC(C)C)ccc31)OCO2 [Product 1u, 3-(3-carboxybenzyl)-1-((6-ethylbenzo[d][1,3]dioxol-5-yl)methyl)-6-isobutoxy-4-oxo-1,4-dihydroquinolin-2-carboxylic] | 185 to 186 |  |
| CC(C)C[C@@H]1NC(=O)[C@@H](C(C)C)NC(=O)[C@@H]2CCCN2C(=O)[C@@H](CC(=O)O)NC(=O)[C@@H](Cc2c[nH]c3ccccc23)NC1=O [BQ-123] (cyclo(L[dW][dD]P[dV])) |  | incidence of premature delivery [3]: decreased incidence of premature delivery |
| CCOC(=O)c1cccc(Cc2c(C(=O)OCC)n(Cc3cc4c(cc3CC)OCO4)c3ccc(OC(C)C)cc3c2=O)c1 [Product 1d, Ethyl 3-(3-(ethoxycarbonyl)benzyl)-1-((6-ethylbenzo[d][1,3]dioxol-5-yl)methyl)-6-isopropoxy-4-oxo-1,4-dihydroquinoline-2-carboxylate] | 124 to 126 |  |
| CCCCCOc1ccc2c(c1)c(=O)c(Cc1cccc(C(=O)O)c1)c(C(=O)O)n2Cc1cc2c(cc1CC)OCO2 [Product 1x, 3-(3-carboxybenzyl)-1-((6-ethylbenzo[d][1,3]dioxol-5-yl)methyl)-4-oxo-6-(pentyloxy)-1,4-dihydroquinoline-2-carboxylic acid] | 152 to 155 |  |
| C=CCOc1ccc2c(c1)c(=O)c(Cc1cccc(C(=O)OCC)c1)c(C(=O)OCC)n2Cc1cc2c(cc1CC)OCO2 [Product 1e, Ethyl 6-(allyloxy)-3-(3-(ethoxycarbonyl)benzyl)-1-((6-ethylbenzo[d][1,3]dioxol-5-yl)methyl)-4-oxo-1,4-dihydroquinoline-2-carboxylate] | 128 to 131 |  |
